According to patent publication US20230293404A1, “Compositions Comprising Natural Polymers and One or More (Bio)-Alkanediols” (Symrise AG, priority 2020, published 2023):

Experiments:
[1] = Physical state of alkanediols and alkanediol mixtures at RTP; assay type: physicochemical; conditions: at RTP (room temperature, normal pressure); FIG. 3 and FIG. 4
Text: The term “liquid alkanediol” within the context of the present invention means an alkanediol component which is liquid at room or ambient temperature and under normal pressure, i.e. standard RTP conditions.
FIG. 3 is a photograph showing from left to right samples of the liquid 1,2-pentanediol, 1,2-hexanediol, 1,2-heptanediol, 2,3-heptanediol, 2,3-octanediol and 2,3-undecanediol in comparison to the solid 1,2-octanediol, 1,2-undecanediol, 1,2-nonanediol and the liquid 2,3-nonanediol. The first six alkanediols are liquid at RTP, whereas 1,2-octanediol, 1,2-nonanediol and 1,2-undecanediol are solid substances at RTP; 2,3-nonanediol is also liquid at RTP.
FIG. 4 is a representative photograph of samples of mixtures of 1,2-alkanediols with the respective 2,3-alkanediol. All mixtures are liquid. They are shown in the following order: 1,2-heptanediol (95%)+2,3-heptanediol (5%), 1,2-octanediol (95%)+2,3-octanediol (5%), and 1,2-nonanediol (95%)+2,3-nonanediol (5%).

[2] = tested on: microbial load of natural polymers; assay: Microbial load of mixtures of natural polymers with alkanediols (plating, CFU count); assay type: cell-based, bacteria
Description: The following tests were performed to show the influence of different alkanediols on the microbial load of natural polymers.
A selection of natural polymers as specified in Table 1 was systematically analyzed in combination with different 1,2-alkanediols and 2,3-alkanediols (0.5%). The polymers were chosen to be representative from different polymer classes:
A mixture of the natural polymer (concentration as recommended by supplier) with water and 1,2-alkanediol (0.5%) or 2,3-alkanediol (0.5%) or a mixture of 1,2-alkanediol and 2,3-alkanediol (0.5% final concentration) was prepared, as representative of a cold formulation preparation processes, and directly sampled for determination of microbial load. Additionally, the mixtures were stored at 40° C. and again sampled for microbial load after 2 days and 7 days.
The microbial load of the mixtures was determined by plating 1000 μl (or respective dilutions of the material) on an agar plate based on universal bacterial growth medium (Caseinpepton-Sojamehlpepton-Bouillon, Merck 1.05459+Agar No. 1, Oxoid LP0011). The plates were then incubated at 37° C. for 5 days and then photo documented. In parallel, bacterial colonies were counted (CFU—colony forming units per ml).

[3] = Maximum solubility of alkanediols in water (visual assessment); assay type: physicochemical; conditions: assessed at ambient temperature after 24 h storage at 5° C.; visual observation
Description: The water solubility of a substance is the saturation mass concentration of the substance in water at a given temperature. The determination of the solubility in water relates to essentially pure substances which are stable in water and not volatile.
For the determination of the maximum water solubility of an alkanediol, water and different concentrations of the respective alkanediol were blended by stirring. […] The determination of whether the alkanediol has dissolved in water is based entirely on visual observation.

[4] = Covathick (0.5%) in water + 0.5% 2,3-alkanediol, 2 days storage at 40° C.
[5] = Covathick (0.5%) in water + 0.5% 2,3-alkanediol, 7 days storage at 40° C.
[6] = Covathick (0.5%) in water + 0.5% 2,3-alkanediol, fresh
[7] = Genuvisco (0.5%) in water + 0.5% 2,3-alkanediol, 2 days storage at 40° C.
[8] = Genuvisco (0.5%) in water + 0.5% 2,3-alkanediol, 7 days storage at 40° C.
[9] = Genuvisco (0.5%) in water + 0.5% 2,3-alkanediol, fresh
[10] = Polycos-N 75 (0.5%) in water + 0.5% 2,3-alkanediol, fresh

SMILES | Physical state [1] | Bacterial load (colony forming units) [2, 4] [CFU per mL] | Bacterial load (colony forming units) [2, 5] [CFU per mL] | Bacterial load (colony forming units) [2, 6] [CFU per mL] | Bacterial load (colony forming units) [2, 7] [CFU per mL] | Bacterial load (colony forming units) [2, 8] [CFU per mL] | Bacterial load (colony forming units) [2, 9] [CFU per mL] | Bacterial load (colony forming units) [2, 10] [CFU per mL] | Bacterial load (colony forming units) ([2]; Table 4: Covathick (0.5%) in water + alkanediol or mixture, 0.5% total, 2 days storage at 40° C.) [CFU per mL] | Bacterial load (colony forming units) ([2]; Table 4: Covathick (0.5%) in water + alkanediol or mixture, 0.5% total, 7 days storage at 40° C.) [CFU per mL] | Bacterial load (colony forming units) ([2]; Table 4: Covathick (0.5%) in water + alkanediol or mixture, 0.5% total, fresh) [CFU per mL] | Bacterial load (colony forming units) ([2]; Table 4: PolyCos N-75 (0.5%) in water + alkanediol or mixture, 0.5% total, fresh) [CFU per mL] | Maximum solubility in water [3] [% by weight] | Bacterial load (colony forming units) ([2]; Polycos-N 75 (0.5%) in water + 0.5% 2,3-alkanediol, 2 days storage at 40° C.) [CFU per mL] | Bacterial load (colony forming units) ([2]; Polycos-N 75 (0.5%) in water + 0.5% 2,3-alkanediol, 7 days storage at 40° C.) [CFU per mL] | Bacterial load (colony forming units) ([2]; Xanthan Gum (0.5%) in water + 0.5% 2,3-alkanediol, 2 days storage at 40° C.) [CFU per mL] | Bacterial load (colony forming units) ([2]; Xanthan Gum (0.5%) in water + 0.5% 2,3-alkanediol, 7 days storage at 40° C.) [CFU per mL] | Effect on the microbial load of the natural polymer solutions (in words) ([2]; directly after preparation of the mixtures as well as after 7 days storage, Table 3)
CCCCC(O)C(C)O (stereo not drawn) [2,3-heptanediol] | liquid | 0 | 0 | 5 | 1 | 1 | 5 | 2 | 0 | 0 | 5 | 2 | 3.6 |  |  |  |  | 
CCCCCC(O)C(C)O (stereo not drawn) [2,3-octanediol] | liquid | 0 | 0 | 4 | 0 | 0 | 5 | 1 |  |  |  |  | 1.5 | 0 | 0 | 0 | 0 | superior antimicrobial activity
